Measured values: ChEMBL document CHEMBL1126154, “Pyrrole mannich bases as potential antipsychotic agents” (J Med Chem, 1992)

What was measured:
[1] = biological target: T1, Serotonin 1 (5-HT1) receptor (Rattus norvegicus, UniProt P28564+P30940+P19327+P28565); assay: The compound was tested for its binding affinity towards 5-hydroxytryptamine 1 receptor by displacing [3H]5-HT radioligand in rat cerebral cortex; assay type: tissue-based
[2] = biological target: Serotonin 2 (5-HT2) receptor (Rattus norvegicus, UniProt P30994+P08909+P14842); assay: The compound was tested for its binding affinity towards 5-hydroxytryptamine 2 receptor by displacing [3H]ketanserin radioligand in rat cerebral cortex; assay type: tissue-based
[3] = biological target: T2, Adrenergic receptor alpha-1 (Rattus norvegicus, UniProt P15823+P23944+P43140); assay: The compound was tested for its binding affinity towards Alpha-1 adrenergic receptor by displacing [3H]WB-4101 radioligand in rat cerebral cortex; assay type: tissue-based
T2 sequence (P15823 whole entry): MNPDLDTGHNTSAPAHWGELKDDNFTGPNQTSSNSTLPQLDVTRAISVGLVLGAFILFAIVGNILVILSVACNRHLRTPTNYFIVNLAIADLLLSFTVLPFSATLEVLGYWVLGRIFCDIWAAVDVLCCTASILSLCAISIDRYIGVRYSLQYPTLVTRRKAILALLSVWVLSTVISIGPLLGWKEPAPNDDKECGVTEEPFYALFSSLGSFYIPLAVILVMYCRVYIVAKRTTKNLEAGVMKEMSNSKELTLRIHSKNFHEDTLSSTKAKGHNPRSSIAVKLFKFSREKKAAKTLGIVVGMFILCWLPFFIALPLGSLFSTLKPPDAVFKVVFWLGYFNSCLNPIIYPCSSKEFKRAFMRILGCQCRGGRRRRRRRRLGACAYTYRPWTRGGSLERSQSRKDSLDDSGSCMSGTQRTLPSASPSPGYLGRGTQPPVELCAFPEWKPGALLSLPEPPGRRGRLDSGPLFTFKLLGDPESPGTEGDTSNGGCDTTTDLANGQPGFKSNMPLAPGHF
T2 sequence (P23944 whole entry): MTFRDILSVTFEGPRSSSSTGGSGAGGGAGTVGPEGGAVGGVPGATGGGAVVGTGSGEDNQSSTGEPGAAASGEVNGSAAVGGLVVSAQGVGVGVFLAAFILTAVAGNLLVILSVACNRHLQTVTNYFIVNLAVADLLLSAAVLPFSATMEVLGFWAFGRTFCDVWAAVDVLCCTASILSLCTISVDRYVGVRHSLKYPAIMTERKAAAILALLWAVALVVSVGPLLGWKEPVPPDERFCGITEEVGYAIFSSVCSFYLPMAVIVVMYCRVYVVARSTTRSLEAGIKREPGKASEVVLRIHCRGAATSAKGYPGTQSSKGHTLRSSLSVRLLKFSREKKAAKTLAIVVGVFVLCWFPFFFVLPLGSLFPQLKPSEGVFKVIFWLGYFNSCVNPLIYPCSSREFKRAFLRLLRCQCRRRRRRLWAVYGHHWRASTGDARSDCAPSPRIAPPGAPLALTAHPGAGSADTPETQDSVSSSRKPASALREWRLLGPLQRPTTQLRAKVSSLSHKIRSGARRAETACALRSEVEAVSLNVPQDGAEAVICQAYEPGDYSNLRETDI
T2 sequence (P43140 whole entry): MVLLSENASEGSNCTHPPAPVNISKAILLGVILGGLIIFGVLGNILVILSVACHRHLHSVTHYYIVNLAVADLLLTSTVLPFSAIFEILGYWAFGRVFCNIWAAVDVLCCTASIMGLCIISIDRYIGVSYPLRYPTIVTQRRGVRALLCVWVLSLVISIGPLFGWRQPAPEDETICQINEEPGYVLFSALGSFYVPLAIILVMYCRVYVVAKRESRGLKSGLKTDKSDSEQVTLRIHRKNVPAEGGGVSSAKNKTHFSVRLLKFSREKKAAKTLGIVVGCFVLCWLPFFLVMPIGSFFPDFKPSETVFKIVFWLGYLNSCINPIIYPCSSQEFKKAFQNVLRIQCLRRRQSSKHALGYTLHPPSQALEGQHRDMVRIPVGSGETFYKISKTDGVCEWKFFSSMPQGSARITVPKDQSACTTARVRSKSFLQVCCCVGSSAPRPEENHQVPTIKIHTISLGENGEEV

Rattus norvegicus [4] = assay: The percentage production of catalepsy in rat at a dose of 25 mg/kg ip.; assay type: functional
Rattus norvegicus [5] = assay: Antipsychotic activity at a dose 10 times the ED50 value for CAR block for production of catalepsy in the rat (following i.p. dosing); assay type: functional; conditions: ip
Rattus norvegicus [6] = assay: The compound was measured at a dose 10 times the ED50 value for CAR block for production of catalepsy in the rat via oral administration.; assay type: functional; conditions: Rattus norvegicus, po; read-out: ED50
[7] = biological target: T3, 5-hydroxytryptamine receptor 1A (Rattus norvegicus, UniProt P19327); assay: Binding affinity towards 5-hydroxytryptamine 1A receptor by displacing [3H]WB-4101 from rat hippocampus; assay type: tissue-based
T3 sequence (P19327 whole entry): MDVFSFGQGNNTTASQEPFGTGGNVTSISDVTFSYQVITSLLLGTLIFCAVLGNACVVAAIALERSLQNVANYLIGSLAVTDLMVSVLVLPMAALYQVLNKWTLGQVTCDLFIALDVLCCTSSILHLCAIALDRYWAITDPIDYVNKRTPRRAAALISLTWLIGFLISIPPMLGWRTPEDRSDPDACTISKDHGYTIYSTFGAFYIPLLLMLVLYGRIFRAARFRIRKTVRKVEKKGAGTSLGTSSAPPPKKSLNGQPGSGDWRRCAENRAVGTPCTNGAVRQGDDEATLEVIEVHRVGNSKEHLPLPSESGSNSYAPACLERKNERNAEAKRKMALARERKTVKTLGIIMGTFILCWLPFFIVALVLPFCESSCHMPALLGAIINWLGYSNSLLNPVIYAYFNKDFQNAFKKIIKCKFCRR

[8] = biological target: 5-hydroxytryptamine receptor 1B (Rattus norvegicus, UniProt P28564); assay: The compound was tested for its binding affinity towards 5-hydroxytryptamine 1B receptor by displacing [3H]serotonin radioligand in rat cerebral cortex; assay type: tissue-based
Rattus norvegicus [9] = assay: The percentage production of catalepsy in rat at a dose of 40 mg/kg ip.; assay type: functional
Rattus norvegicus [10] = organism: Rattus norvegicus; assay: ED50 value for catalepsy indicates the dose required to produce a 50% of maximum catalepsy score. parentheses value indicate 95% confidence limit.; assay type: functional
[11] = biological target: T1, Serotonin 1 (5-HT1) receptor
Description: The binding affinity was measured on serotonin 5-hydroxytryptamine 1 receptor in rat brain tissue

[12] = biological target: T3, 5-hydroxytryptamine receptor 1A; assay: biochemical
Description: The compound was tested for its binding affinity towards 5-hydroxytryptamine 1A receptor by displacing [3H]WB-4101 radioligand in rat hippocampus

Rattus norvegicus [13] = organism: Rattus norvegicus; assay: (§1) ED50 value for catalepsy indicates the dose required to produce a 50% of maximum catalepsy score; assay type: functional
Rattus norvegicus [14] = assay: The percentage production of catalepsy in rat at a dose of 58 mg/kg ip.; assay type: functional
Rattus norvegicus [15] = assay: The percentage production of catalepsy in rat at a dose of 4 mg/kg ip.; assay type: functional
Rattus norvegicus [16] = organism: Rattus norvegicus; assay: The compound was measured at a dose 10 times the ED50 value for CAR block for production of catalepsy in the rat; assay type: functional, organism-based
Rattus norvegicus [17] = organism: Rattus norvegicus; assay: as §1; assay type: functional, organism-based

Sequence of 5-hydroxytryptamine receptor 1B (P28564 whole entry): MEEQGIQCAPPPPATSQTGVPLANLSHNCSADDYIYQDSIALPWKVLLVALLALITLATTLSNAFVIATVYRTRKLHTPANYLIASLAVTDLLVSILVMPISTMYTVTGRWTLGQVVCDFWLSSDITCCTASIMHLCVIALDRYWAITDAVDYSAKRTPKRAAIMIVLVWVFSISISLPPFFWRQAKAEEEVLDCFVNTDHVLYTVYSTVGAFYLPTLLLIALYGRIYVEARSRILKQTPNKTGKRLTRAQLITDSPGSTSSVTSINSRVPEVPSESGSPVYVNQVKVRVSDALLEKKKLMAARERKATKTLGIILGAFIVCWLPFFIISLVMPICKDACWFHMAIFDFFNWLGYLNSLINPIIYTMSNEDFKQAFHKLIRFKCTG

Row | Structure (SMILES) | Ki [1] [nM] | Ki [2] [nM] | Ki [3] [nM] | ED50 (Rattus norvegicus [5]) [mg/kg] | other results
1 | COc1ccccc1N1CCN(Cc2ccc(CN3CCCCCC3=O)n2C)CC1 | 120 | 669 | 43.7 | 2.1 | % catalepsy at 25 mg/kg (Rattus norvegicus [4]): 51%; ED50 (Rattus norvegicus [6]): 30.5 mg/kg
2 | Cn1c(CN2CCN(c3ccccc3Cl)CC2)ccc1CN1CCCC1=O |  |  | 53.1 | > 15 | 
3 | O=C1CCCN1Cc1ccc(CN2CCN(c3ccccc3)CC2)[nH]1 |  |  |  | > 15 | 
4 | CC(C)Oc1ccccc1N1CCN(Cc2ccc(CN3CCCCCCC3=O)n2C)CC1 | 18.1 | 260 | 20.8 | 4 | Ki [7]: 1.7 nM; Ki [8]: 75 nM; % catalepsy at 40 mg/kg (Rattus norvegicus [9]): 4.2%; ED50 (Rattus norvegicus [6]): > 30 mg/kg
5 | CC(C)c1ccccc1N1CCN(Cc2ccc(CN3CCCCCCC3=O)n2C)CC1 | 50.2 | 196 | 35.9 | > 15 | 
6 | CCc1ccccc1N1CCN(Cc2ccc(CN3CCCC3=O)n2C)CC1 | 304 | 227 | 38.2 | 15 | 
7 | Cn1c(CN2CCN(c3ccccc3O)CC2)ccc1CN1CCCC1=O |  |  | 140 | > 15 | 
8 | CN(C)CCCN1c2ccccc2Sc2ccc(Cl)cc21 [CHLORPROMAZINE] |  |  |  | 1.9 | ED50 (Rattus norvegicus [10]): 9.4 mg/kg; Ki [11]: > 1000 nM; Ki [12]: 179 nM
9 | CN1CCN(CCCN2c3ccccc3Sc3ccc(C(F)(F)F)cc32)CC1 [TRIFLUOPERAZINE] | > 1000 |  | 29.3 | 0.5 | Ki [7]: 411 nM; ED50 (Rattus norvegicus [13]): 1.7 mg/kg
10 | Cn1c(CN2CCN(c3cccc(C(F)(F)F)c3)CC2)ccc1CN1CCCC1=O | 156 | 1000 | > 1000 | 5.8 | % catalepsy at 58 mg/kg (Rattus norvegicus [14]): 56%
11 | O=C(CCCN1CCC(O)(c2ccc(Cl)cc2)CC1)c1ccc(F)cc1 [HALOPERIDOL] |  |  |  |  | ED50 (Rattus norvegicus [10]): 0.36 mg/kg
12 | O=C1CC2(CCCC2)CC(=O)N1CCCCN1CCN(c2ncccn2)CC1 [BUSPIRONE] |  |  |  | 4.5 | 
13 | COc1ccccc1N1CCN(Cc2ccc(CN3CCCC3=O)[nH]2)CC1 | 148 | 1000 | 43.1 | > 15 | 
14 | Cn1c(CN2CCN(c3cccc([N+](=O)[O-])c3)CC2)ccc1CN1CCCC1=O | > 1000 | > 100 | > 100 | 15 | 
15 | Cc1ccccc1N1CCN(Cc2ccc(CN3CCCC3=O)n2C)CC1 | 1000 |  | 136 | > 15 | 
16 | Cn1c(CN2CCN(c3cccc(Cl)c3)CC2)ccc1CN1CCCC1=O | 196 | 256 | 264 | 12.3 | 
17 | CCN1CCC[C@H]1CNC(=O)c1cc(S(N)(=O)=O)ccc1OC [LEVOSULPIRIDE] |  |  | > 1000 | > 40 | ED50 (Rattus norvegicus [13]): > 40 mg/kg

Row | Structure (SMILES) | Ki [1] [nM] | Ki [2] [nM] | Ki [3] [nM] | ED50 (Rattus norvegicus [5]) [mg/kg] | other results
18 | CCCc1ccccc1N1CCN(Cc2ccc(CN3CCCC3=O)n2C)CC1 | 283 | 317 | 26.6 | > 30 | 
19 | CCc1ccccc1N1CCN(Cc2ccc(CN3CCCCC3=O)n2C)CC1 | 27.3 | 355 | 11.3 | > 15 | Ki [7]: 30 nM; Ki [8]: 100 nM
20 | COc1ccccc1N1CCN(Cc2ccc(CN3CCCC3=O)n2-c2ccccc2)CC1 |  |  | 100 | > 15 | 
21 | Cn1c(CN2CCN(c3cccc([N+](=O)[O-])c3)CC2)ccc1CN1CCCCC1=O |  | 669 |  | > 15 | 
22 | CCCCc1ccccc1N1CCN(Cc2ccc(CN3CCCC3=O)n2C)CC1 |  |  |  | > 15 | 
23 | Cn1c(CN2CCN(c3ccccc3)CC2)ccc1CN1CCCC1=O |  |  | 436 | > 15 | 
24 | CCCCOc1ccccc1N1CCN(Cc2ccc(CN3CCCCCC3=O)n2C)CC1 | 58.9 | 237 | 15.7 | > 15 | 
25 | Cc1nc2n(c(=O)c1CCN1CCC(c3noc4cc(F)ccc34)CC1)CCCC2 [RISPERIDONE] |  |  |  |  | % catalepsy at 4 mg/kg (Rattus norvegicus [15]): 50%; ED50 (Rattus norvegicus [16]): 0.32 mg/kg; ED50 (Rattus norvegicus [6]): 2.2 mg/kg; ED50 (Rattus norvegicus [17]): 3.5 mg/kg
26 | COc1ccccc1N1CCN(Cc2ccc(CN3CCCCCCC3=O)n2C)CC1 | 41 | 1000 | 23.1 | 8.2 | % catalepsy at 25 mg/kg (Rattus norvegicus [4]): 16.3%; ED50 (Rattus norvegicus [6]): > 27 mg/kg
27 | COc1ccccc1N1CCN(Cc2ccc(CN3CCCC3=O)n2C)CC1 | 185 | > 1000 | 44.9 | 2.1 | Ki [7]: 17.2 nM; % catalepsy at 25 mg/kg (Rattus norvegicus [4]): 31%; ED50 (Rattus norvegicus [6]): > 20 mg/kg
28 | CC(C)Oc1ccccc1N1CCN(Cc2ccc(CN3CCCCC3=O)[nH]2)CC1 | 33.1 | 55.3 | 5.2 | 4 | Ki [7]: 5.4 nM; % catalepsy at 40 mg/kg (Rattus norvegicus [9]): 10%
29 | COc1ccccc1N1CCN(Cc2ccc(CN3CCCCC3=O)n2C)CC1 | 139 |  | 166 | 2.3 | % catalepsy at 25 mg/kg (Rattus norvegicus [4]): 39.8%; ED50 (Rattus norvegicus [6]): 9.7 mg/kg
30 | CC(C)c1ccccc1N1CCN(Cc2ccc(CN3CCCC3=O)n2C)CC1 | 76 | 409 | 20 | 5.8 | 
31 | Cn1c(CN2CCN(c3ccccc3C#N)CC2)ccc1CN1CCCC1=O | 140 |  | 63.7 | > 15 | 
32 | Cn1c(CN2CCN(c3cccc(F)c3)CC2)ccc1CN1CCCC1=O | 1000 | > 100 | > 100 | > 15 | 
33 | COc1cccc(N2CCN(Cc3ccc(CN4CCCC4=O)n3C)CC2)c1 | > 1000 |  | 1000 | > 7.5 | 
